Results reported in US20080070939A1, “LOCAL […] COMPOSITIONS CONTAINING DEXTROROTATORY MORPHINAN DERIVATIVES OR PHARMACEUTICALLY ACCEPTABLE SALTS THEREOF” (CHI MEI FOUNDATION HOSPITAL, priority 2006, published 2008).
Counter-ions that a name gives are not always drawn.

Assays:
[1] = test system: Male Sprague-Dawley rats; assay: Spinal anesthetic effect (spinal blockade) after intrathecal injection in rats; type: in vivo; set-up: AUC of time-% PE curve, spinal blockade of motor function / AUC of time-% PE curve, spinal blockade of proprioception / AUC of time-% PE curve, spinal blockade of nociceptive reaction: unit not given beside the values
Experimental: Male Sprague-Dawley rats (weighing about 300 to 350 g); for each dose of each drug, n=6.
In brief, for preparation, the hairs on the back of each rat were shaved, and the shaved back was sterilized with iodine.
After three minutes, 50 μL of each of the tested drugs was injected via a 27-gauge needle attached to a 100-μL syringe (Hamilton, Reno, Nev.) into the intrathecal space between the fourth and fifth lumbar vertebrae. The development of spinal blockade was observed from the paralysis of the hind limbs of the rats.
The magnitude of nerve block (including blocking of motor function, proprioception, and nociceptive reaction) was expressed as the percentage of possible effect (hereinafter referred to as % PE), and the maximal value of % PE was expressed as the percentage of maximal possible effect (hereinafter referred to as % MPE).
Motor function was evaluated by measuring the extensor postural thrust of the right hind limbs of the rats using a digital platform balance (Mettler Toledo, Switzerland, model PB1502-S). To test the extensor postural thrust, the rat was held upright with the hind limb extended, so that the body weight of the rat was supported by the distal metatarsus and toes. The extensor postural thrust could be measured as the force of the right hind limb of the rat thrusting the platform balance.
A reduction in the force, resulting in extensor muscle tone, was considered as a motor deficit. A force less than 20 g (i.e., a weight of the “flaccid limb”) was considered absence of an extensor postural thrust or 100% motor block or 100% MPE.
Proprioception was evaluated based on resting posture and postural reactions (including tactile placing and hopping). First, the front half of the rat body and one of the hind limbs were lifted off the ground at the same time so that the rat was standing on one hind limb. Then, the rat was moved laterally, which normally evoked a prompt hopping response of the weight-bearing hind limb of the rat in the direction of movement so as to avoid falling. A predominantly proprioceptive block caused a delayed hopping followed by greater lateral hops. […] Functional deficits were classified into four grades: 3 (normal or 0% MPE), 2 (slightly impaired), 1 (severely impaired), and 0 (completely impaired or 100% MPE).
Nociceptive reaction was evaluated by the withdrawal reflex or vocalization elicited by the pinch of a skin fold over the back at 1 cm near the proximal part of the tail, the lateral metatarsus of the bilateral hind limbs, and the dorsal part of the mid-tail. At each testing time, only one pinch was given to each of the abovementioned four testing sites, and the time interval between stimulations at different sites was around 2 seconds. Nociceptive reactions were classified into five grades: 4 (normal or 0% MPE), 3 (25% MPE), 2 (50% MPE), 1 (75% MPE), and 0 (absent or 100% MPE).
The potency of each drug on spinal blockades was compared using ED50.
Duration was defined as the interval from injection of the tested drugs to complete recovery. The ED25, ED50 and ED75 obtained according to the SAS NLIN analysis in the preceding section “C. Potency evaluation” were used in this experiment.
Regarding the method of evaluating the effect of co-administration, dextromethorphan hydrobromide monohydrate was used as an example.
After the tests, the time of measurement of each drug and its corresponding % PE were plotted to obtain the time-% PE curves of each drug. The area under the curve (AUC) of time-% PE was calculated using the trapezoidal rule, and was used to evaluate the effect of the co-administration of the drugs.
Statistical software, SPSS for Windows® (version 10.0.7) was used. Data were represented as mean±SEM.

[2] = test system: Male Sprague-Dawley rats; assay: Infiltrative cutaneous anesthesia (inhibition of cutaneous trunci muscle reflex, CTMR) after subcutaneous injection in rats; type: in vivo
Experimental: Male Sprague-Dawley rats (weighing about 200 to 250 g); for each dose of each drug, n=8.
In brief, hairs on the dorsal surface (about 10×10 cm^2) of the thoracolumbar region of the rat were shaved, and the shaved surface was sterilized with iodine for preparation. To reduce the number of animals used, the back of the rat was further divided into left and right parts. One drug was injected first at the right part. After a washout period of one week, another drug was injected at the left part.
0.6 mL of drug was injected subcutaneously under the dorsal surface of the thoracolumbar region of the rat using a 30-gauge needle attached to a syringe (Becton Drive, Franklin Lakes, USA). The subcutaneous injection would result in a circular elevation (i.e., a wheal) of the skin, about 2 cm in diameter. The elevation was marked with ink within 1 minute after injection.
CTMR refers to the reflex movement of the skin of the back caused by twitching of the lateral thoracispinal muscle in response to local dorsal cutaneous stimulation. Essentially, a von Frey filament (No.15; Somedic Sales AB, Sweden) to which a cut end of an 18-gauge needle was affixed was used to produce a standard nociceptive stimulus (strength: 19 g). Six pinpricks (at a frequency of 0.5-1 Hz) were applied to a single marked wheal during each test. […] For example, absence of any response to all of the 6 pinpricks was defined as a complete nociceptive block (i.e., 100% MPE).
The difference resided in that subcutaneous injections of ED25, ED50 and ED75 of the drugs were performed based on the method described in the section “A. Drug injection” of this example, and evaluation of the infiltrative cutaneous anesthetic effect was performed based on the method described in the section “B. Neurobehavioral evaluation” of this example.

[3] = Systemic safety indices: mortality 24 hours after intraperitoneal injection in rats; conditions: rat, in vivo, ip
Experimental: (§1) Essentially, each drug was injected intraperitoneally into the rats (n=8). The number of dead rats was observed after 24 hours, and the rate of mortality (%) was calculated. Thereafter, the doses of each drug and the relative mortality were plotted to obtain dose-mortality curves of the drugs. […] The safety index (LD50/ED50) of each drug was calculated using the LD50 thus obtained and the ED50 obtained in the section “C. Potency evaluation” of this example.

[4] = test system: rats; assay: as above
Experimental: as §1

[5] = intrathecal, rats, 2 ED50 when administered independently, ED50 of each drug when co-administered, mean ± SEM
[6] = spinal blockade, mean of motor function, proprioception and nociceptive reaction, intrathecal, rats
[7] = infiltrative cutaneous anesthesia, rats, 2ED50 when administered independently, ED50 for co-administration, mean ± SEM
[8] = infiltrative cutaneous anesthesia, subcutaneous injection, rats
[9] = subcutaneous dose of ED75, rats, mean±SEM

With `COc1ccc2c(c1)[C@]13CCCC[C@@H]1[C@H](C2)N(C)CC3` [Dextromethorphan hydrobromide monohydrate] the “% MPE of spinal blockades of motor function, proprioception and nociceptive reaction (range over the three functions)” value ([1]; intrathecal dose of ED75, rats) was 66-80 % MPE, the “duration of spinal blockades of motor function, proprioception and nociceptive reaction (range over the three functions)” value ([1]; intrathecal dose of ED75, rats) was 22 to 40 min and the “effect of co-administration with bupivacaine hydrochloride on spinal blockade” value ([1]; intrathecal, rats, ED50 of each drug) was “additive effect”. For the same compound, the “AUC of time-% PE curve, spinal blockade of motor function” value [1, 5] was 953 ± 114, the “AUC of time-% PE curve, spinal blockade of nociceptive reaction” value [1, 5] was 4131 ± 385 and the “AUC of time-% PE curve, spinal blockade of proprioception” value [1, 5] was 1985 ± 219. The “Motor function ED50 (95% CI)” value ([1]; spinal blockade of motor function, intrathecal injection, rats) was 0.56 (0.54–0.59) mg, the “Nociceptive reaction ED50 (95% CI)” value ([1]; spinal blockade of nociceptive reaction, intrathecal injection, rats) was 0.46 (0.43–0.49) mg and the “Proprioception ED50 (95% CI)” value ([1]; spinal blockade of proprioception, intrathecal injection, rats) was 0.48 (0.45–0.52) mg. The “Mean value ED25” value [1, 6] was 0.39 mg, the “Mean value ED50” value [1, 6] was 0.50 mg and the “Mean value ED75” value [1, 6] was 0.65 mg. For the same compound, the ED50 ([2]; Rattus norvegicus, sc, infiltrative cutaneous anesthesia, subcutaneous injection, rats, read-out: ED50 (95% CI)) was 2.05 mg/kg, the “% MPE” value [2, 7] was 67 ± 8 % MPE and the “AUC (% min.)” value [2, 7] was 2300 ± 440 % min. For the same compound, the “Duration” value [2, 7] was 58 ± 4 min, the ED25 [2, 8] was 1.35 mg/kg and the ED75 [2, 8] was 3.11 mg/kg. The “duration of cutaneous anesthesia compared with lidocaine hydrochloride” value ([2]; same effective doses (ED25, ED50 or ED75), rats) was “longer duration”, the “% MPE of cutaneous nociceptive block” value [2, 9] was 71±8 % MPE and the “duration of cutaneous nociceptive block” value [2, 9] was “approximately 50±5 minutes”. For the same compound, the “effect of co-administration with lidocaine hydrochloride on cutaneous nociceptive blockade” value ([2]; subcutaneous, rats, ED50 of each drug) was “additive effect”, the LD50 at 24 h [3] was 138 mg/kg and the “systemic safety index relative to that of lidocaine hydrochloride” value ([4]; LD50/ED50, rats) was 2.4 times. The “safety index LD50/ED50” value ([4]; LD50 intraperitoneal / ED50 of infiltrative cutaneous anesthesia, rats) was 67.3.
